Measurements published in PubChem BioAssay (NCI).
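Compound exposure: 48 hours, 5 concentrations, 96-well plates. TGI is the concentration that stops growth completely.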

Columns and labels:
Test in all cases: NCI-60 cell line screen, 48 h
[1] = system: SW-620 colon
[2] = system: HCC-2998 colon
[3] = system: HOP-92 NSCLC
[4] = system: A498 renal
[5] = system: IGROV1 ovarian
[6] = system: SK-OV-3 ovarian
[7] = system: TK-10 renal
[8] = system: CAKI-1 renal
[9] = system: A549 NSCLC
[10] = system: MCF7 breast

Row | SMILES | TGI [1] [µM] | TGI [2] [µM] | TGI [3] [µM] | TGI [4] [µM] | TGI [5] [µM] | TGI [6] [µM] | TGI [7] [µM] | TGI [8] [µM] | TGI [9] [µM] | TGI [10] [µM]
1 | N#C/C(C(=O)NCc1ccccc1)=C(/N)N1CCCC1 | > 100 | > 100 | > 100 | > 100 | > 100 | > 100 | > 100 | > 100 | > 100 | 
2 | CC[C@]12C=CCN3CCC4(c5cc([C@@]6(C(=O)OC)CC7CN(CCc8c6[nH]c6ccccc86)CC6CCCCC67)c(OC)cc5N(C)C4[C@](O)(C(=O)OC)C1OC(C)=O)[C@@H]32 (some centres not stated) | 15.6 | < 0.01 | 1.5 | 0.576 | 0.651 |  | 18.7 | 12 | 12.6 | 
3 | C=C1C[C@@H]2O[C@H]3[C@H]4[C@@H](C[C@@H](C)[C@@H](OC(C)=O)[C@H]42)[C@@H](C)CO[C@@]3(C)[C@H](OC(=O)CCCCCCC)CC1=O | 29.8 | 30.8 |  | 32.5 | 48.4 |  | 32.7 | 33.5 | 35.2 | 35.9
4 | CSc1nc(Cl)c2c(n1)Sc1nc3ccccc3n1C2O (configuration not stated) | 25.7 | 13.6 | 26.6 | > 100 | > 100 | > 100 | > 100 |  | > 96.4 | > 100
5 | CSc1ncc2c(n1)-c1ccccc1OC2NC1CC1 (configuration not stated) | > 100 |  | > 100 | 28 | > 100 | > 100 | > 100 | 86.3 | > 100 | > 100
6 | CC(C)(C)N=NC(C)(C)N=C=O | > 100 |  | > 100 | > 100 | > 100 | > 100 | > 100 | > 100 | > 100 | 
7 | C=C(C)[C@H]1CC23C(=O)[C@@](C)(C[C@H]2C1(C)C)C(=O)C(C(=O)C(C)C)=C3O | 34.5 |  |  |  | 32.7 |  | 53.3 | 55.3 | 57.9 | 32.6
8 | CCOC(=O)[C@@H](Cc1ccc(CCl)cc1)NC(C)=O | > 100 | 40.4 | 43.6 |  | 51.2 | > 100 | 23.4 | 68.6 | > 100 | 83.5
9 | c1cncc(CSc2nc3ccccc3nc2-c2cccs2)c1 | > 100 | > 100 |  |  |  |  | > 100 |  | > 100 | 
10 | CC(C)=C/C(CC(O)(C(F)(F)F)C(F)(F)F)=N\O | > 100 | > 100 | > 100 | > 100 | > 100 | > 100 | > 100 |  | > 100 | > 100
11 | NC(=O)c1ccc[n+](C2=C([O-])c3ccccc3C(=O)/C2=N\S(=O)(=O)c2ccccc2)c1 | 30.7 | 22.6 | 26.5 |  | 24.5 | > 100 | > 100 | 37.1 | 37.7 | 29.6
12 | COc1ccc(C2C=C(c3ccc(C)cc3)N(c3ccc(OC)cc3[N+](=O)[O-])C3C(=O)OC(=O)C23)c(OC)c1 (configuration not stated) | 80.9 | 79.4 |  | > 100 | 58.1 | > 100 | > 100 | > 100 | > 100 | > 100
